Source: patent US20240400579A1, “SPIROCYCLIC MODULATORS OF CHOLESTEROL BIOSYNTHESIS AND THEIR USE FOR PROMOTING REMYELINATION” (GENENTECH, INC., priority 2021, published 2024)
Read-outs that look alike come from different tables or passages of the source. Blank lines part the entries; values can stand above or below the molecule they belong to.

Experiments:
[1] = test system: zymostenol accumulation in EpiSC-derived OPCs (EBP); test: GC/MS-based sterol profiling, zymostenol accumulation; format: cell-based, mouse; conditions: 8 doses from 0.15 nM to 333 nM, read-out: mZymo GCMS EC50
Protocol: (§1) To assess effects of treatments on OPCs, all treatments were assayed in two or more independent platings of epiblast stem cell-derived OPCs (EpiSC). EpiSC-derived OPCs were obtained using in vitro differentiation protocols and culture conditions described previously (Najm et al, 2011, Nature Methods). OPCs were expanded and frozen down in aliquots. OPCs were thawed into growth conditions for at least one passage before use in further assays.
Sterols were monitored using a modified Folch wash protocol (Hubler et al, 2018, Nature). EpiSC-derived OPCs were plated at 100,000 cells per well in PO— and laminin-coated 96-well plates in N2B27 media without growth factors. After 24 hours, cells were rinsed with saline and plates were frozen. Cholesterol-d7 standard was then added to each well before drying under nitrogen stream and derivatization with 55 μl of bis(trimethylsilyl) trifluoroacetamide. After derivatization, 2 μl were analyzed by gas chromatography/mass spectrometry using an Agilent 5973 Network Mass Selective Detector equipped with a 6890 gas chromatograph system and a HP-5MS capillary column (30 m x 0.25 mm×[…]). Samples were analyzed in full scan mode using electron impact ionization; ion fragment peaks were integrated to calculate sterol abundance, and quantitation was relative to cholesterol-d7. The following ion fragments were used to quantitate each metabolite: cholesterol-d7 (465), FF-Mas (482), cholesterol (368), zymostenol (458), zymosterol (456), Desmosterol (456, 343), 7-dehydrocholesterol (456, 325), lanosterol (393), lathosterol (458), 14-dehydrozymostenol (456, 351). […] All standards were obtained from Avanti Polar Lipids unless otherwise indicated. Calibration curves were generated by injecting varying concentrations of sterol standards and maintaining a fixed amount of cholesterol-D7. For normalized zymostenol accumulation results, the total amount of zymostenol measured after drug treatment was divided by the total amount of zymostenol accumulated after 24 hr treatment with 100 nM positive control reference.

EpiSC-derived OPCs = test: In vitro phenotypic screening of OPCs, MBP high-content imaging; format: cell-based, mouse; conditions: percentage of MBP+ oligodendrocytes, 3 days, 0.5 nM to 1000 nM, read-out: mOPC EC50
Protocol: as §1
EpiSC-derived OPCs were grown and expanded in poly-L-ornithine (PO) and laminin-coated flasks in N2B27 media (DMEM/F12 (Gibco), N2-MAX (R&D Systems), B-27 (ThermoFisher), and GlutaMax (Gibco)) supplemented with FGF2 ([…], R&D systems, 233-FB-025) and PDGF-AA ([…], R&D systems, 233-AA-050) before harvesting for experiments. The cells were seeded onto poly-L-ornithine or poly-D-lysine coated CellCarrier Ultra plates (PerkinElmer) coated with laminin (Sigma, L2020) at a density of 150,000/cm^2 in N2B27 media without growth factors. For dose-response testing, a 1000× compound stock in dimethyl sulphoxide (DMSO) was added to assay plates, resulting in 8-point dose curves with final concentrations between 1000 nM and 0.5 nM. Positive controls and DMSO vehicle controls were included in each assay plate. Cells were incubated under standard conditions (37° C., 5% CO2) for 3 days and fixed with 4% paraformaldehyde (PFA) in phosphate buffered saline (PBS) for 20 min. Fixed plates were washed with PBS, permeabilized with 0.1% Triton X-100, and blocked with 10% donkey serum (v/v) in PBS for 40 min. Then, cells were labelled with MBP antibodies (Abcam, ab7349; 1:200) for 2 h at room temperature, washed with PBS, and stained with Alexa Fluor conjugated secondary antibodies (1:500) for 45 min. Nuclei were visualized by DAPI staining (Sigma; 1 μg/ml), followed by further PBS washes.
Cells and cell culture plates were imaged on the Operetta High Content Imaging and Analysis system (PerkinElmer). Analysis (PerkinElmer Harmony and Columbus software) began by identifying intact nuclei stained by DAPI. The peri-nuclear region of each cell was then cross-referenced with the mature myelin protein (MBP) stain to identify oligodendrocyte nuclei, and from this the percentage of oligodendrocytes was calculated. EC50 values were calculated using The Levenberg-Marquardt algorithm to fit a Hill equation to dose-response data (0.5 nM to 1000 nM).

[2] = target: human emopamil binding protein and human 7-dehydrocholesterol reductase co-expressing cell membrane (Homo sapiens (Human), UniProt Q15125); test: hEBP-DHCR7 radioligand filtration binding assay with [3H]-Compound 118A*; conditions: radioligand [3H]-Compound 118A*; HEK293 membrane co-expressing hEBP and DHCR7
Protocol: Membrane Preparation: human emopamil binding protein and human 7-dehydrocholesterol reductase co-expressing cells were generated by transient transfecting host human embryonic kidney (HEK) 293 cells with 2 DNA constructs containing each protein's coding sequence. Cells were suspension cultured at 37° C. with 5% CO2 in […] 293 Expression Medium (Thermofisher). Whole cell membrane was prepared by harvesting the cell pellet, adding cold membrane buffer (50 mM Tris, pH7.5, 1× Roche COMPLETE EDTA-free protease inhibitor cocktail) 10 times volume of the cell pellets weight, lysing cell pellet on ice by using Dounce homogenizer, spinning at 200 g 4° C. for 15 min, collecting supernatant and spinning again at 25000 g 4° C. for 50 min, transferring pellet to Dounce homogenizer, re-suspending pellet by homogenizing in membrane buffer on ice to reach ˜25 mg/mL, then keeping whole cell membrane aliquots at −80° C.
Compounds were prepared in a 96-well U bottom plate using an Echo550 machine and 10 mM compound DMSO stock solution, followed by an 8-dose 5-fold serial dilutions protocol with final testing compound concentration ranging from 0.06 to 5000 nM, with DMSO back fill to 100 nL/well and n=2. […] The UniFilter-96 GF/B plates were pre-treated by adding 50 μl/well of 0.3% (v/v) PEI to UniFilter-96 GF/B plates. The plates were sealed and incubated at 4° C. for 3 hrs. Then, the plates were washed with ice-cold assay buffer 3 times. The radioligand binding assay was prepared by adding assay buffer diluted hEBP-DHCR7 membrane at 66.7 μg/ml x 150 μl/well into the 96-well compound plate to reach 10 μg membrane per well. Then, the assay buffer diluted [3H]-Compound 118A* was added at 25 nM×50 μl/well. Following this, the plate was centrifuged at 1000 rpm for 30 secs. The plate was then sealed and agitated at 600 rpm at 22° C. for 5 min, and then incubated at 22° C. for 3 hrs. The incubation was stopped by transferring the binding solution to the pre-treated UniFilter-96 GF/B plate, vacuum filtrated, and then washed four times with ice-cold assay buffer. Following this, the plates were dried at 37° C. for 45 min. The plates were then sealed at the bottom. 40 μl/well of scintillation cocktail was added to the plates. A MicroBeta2 microplate counter was then used to read the plate and analyze the data. For reference and test compounds, the results are expressed as % Inhibition, using the normalization equation: N=100-100×(U−C2)/(C1−C2), where U is the unknown value, C1 is the average of high controls, and C2 is the average value of low controls. The IC50 was determined by fitting percentage of inhibition as a function of compound concentrations with Hill equation using XLfit. Results are expressed as hEBP-DHCR7 Ki (uM) in Table 4. Ki was calculated as described above.

Sequence of human emopamil binding protein and human 7-dehydrocholesterol reductase co-expressing cell membrane (Q15125 whole entry): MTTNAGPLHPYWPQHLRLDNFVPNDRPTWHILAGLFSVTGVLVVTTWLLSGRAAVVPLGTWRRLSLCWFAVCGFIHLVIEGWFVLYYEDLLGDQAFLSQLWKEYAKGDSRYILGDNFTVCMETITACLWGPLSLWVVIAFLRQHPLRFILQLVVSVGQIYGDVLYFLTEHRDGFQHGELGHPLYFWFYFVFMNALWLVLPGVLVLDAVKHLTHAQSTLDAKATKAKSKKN

Compound: CC(Cc1ccc(C2CC2(C)C)cc1)CN1CCC2(C1)CS(=O)(=O)C2 (racemic) [Compound 102]
EC50 ([1]; Mus musculus, 24 h): 0.0025 µM
EC50 (EpiSC-derived OPCs; Mus musculus, 72 h): 0.02 µM
Ki [2]: 0.00831 µM

Compound: CCC(C)(C)c1ccc(CCC(C)N2CCC3(C2)CS(=O)(=O)C3)cc1 (racemic) [Compound 105, 6-(4-(4-(tert-Pentyl)phenyl)butan-2-yl)-2-thia-6-azaspiro[3.4]octane 2,2-dioxide]
EC50 ([1]; Mus musculus, 24 h): 0.066 µM
EC50 (EpiSC-derived OPCs; Mus musculus, 72 h): 0.26 µM
Ki [2]: 0.0129 µM

Compound: CC(Cc1ccc(C2CC2)cc1)CN1CCC2(C1)CS(=O)(=O)C2 (racemic) [Compound 108, 6-(3-(4-Cyclopropylphenyl)-2-methylpropyl)-2-thia-6-azaspiro[3.4]octane 2,2-dioxide]
EC50 ([1]; Mus musculus, 24 h): 0.0055 µM
EC50 (EpiSC-derived OPCs; Mus musculus, 72 h): 0.0075 µM
Ki [2]: 0.00972 µM

Compound: CCC(C)(C)c1ccc(CC(C)CN2CCC3(CC2)CS(=O)(=O)C3)cc1 (racemic) [Compound 110, 7-(2-Methyl-3-(4-(tert-pentyl)phenyl)propyl)-2-thia-7-azaspiro[3.5]nonane 2,2-dioxide]
EC50 ([1]; Mus musculus, 24 h): 0.022 µM
EC50 (EpiSC-derived OPCs; Mus musculus, 72 h): 0.03 µM
Ki [2]: 0.00844 µM

Compound: C[C@H](Cc1ccc(C2CCC2)cc1)CN1CCC2(C1)CS(=O)(=O)C2 (single isomer, unassigned) [109B*]
EC50 ([1]; Mus musculus, 24 h): 0.0004 µM
EC50 (EpiSC-derived OPCs; Mus musculus, 72 h): 0.00055 µM
Ki [2]: 0.00654 µM

Compound: C[C@@H](Cc1ccc(C2CCC2)cc1)CN1CCC2(C1)CS(=O)(=O)C2 (single isomer, unassigned) [109C*]
EC50 ([1]; Mus musculus, 24 h): 0.0021 µM
EC50 (EpiSC-derived OPCs; Mus musculus, 72 h): 0.003 µM
Ki [2]: 0.00514 µM

Compound: C[C@H](CN1CCC2(C1)CS(=O)(=O)C2)Oc1ccc(C(F)(F)F)cc1 (single isomer, unassigned) [115A*]
EC50 ([1]; Mus musculus, 24 h): 0.0086 µM
EC50 (EpiSC-derived OPCs; Mus musculus, 72 h): 0.042 µM
Ki [2]: 0.0189 µM

Compound: C[C@@H](CN1CCC2(C1)CS(=O)(=O)C2)Oc1ccc(C(F)(F)F)cc1 (single isomer, unassigned) [115B*]
EC50 ([1]; Mus musculus, 24 h): 0.015 µM
EC50 (EpiSC-derived OPCs; Mus musculus, 72 h): 0.029 µM
Ki [2]: 0.0135 µM

Compound: C[C@H](Cc1ccc(C2CCC(F)(F)CC2)c(Cl)c1)CN1CCC2(C1)CS(=O)(=O)C2 (single isomer, unassigned) [117B*]
EC50 ([1]; Mus musculus, 24 h): 0.00035 µM
EC50 (EpiSC-derived OPCs; Mus musculus, 72 h): 0.00046 µM
Ki [2]: 0.00986 µM

Compound: C[C@H](Cc1ccc(C(F)(F)F)nc1)CN1CCC2(C1)CS(=O)(=O)C2 (single isomer, unassigned) [118B*]
EC50 ([1]; Mus musculus, 24 h): 0.054 µM
EC50 (EpiSC-derived OPCs; Mus musculus, 72 h): 0.14 µM
Ki [2]: 0.0505 µM

The next lines start with the values.

EC50 ([1]; 24 hours): 0.0024 µM
EC50 (EpiSC-derived OPCs): 0.035 µM
Ki [2]: 0.011 µM
Compound: C[C@@H](Cc1ccc([C@H]2CC[C@](C)(O)CC2)c(Cl)c1)CN1CCC2(C1)CS(=O)(=O)C2 (mixture of isomers) [Compound 123B, 6-((S)-3-(3-Chloro-4-((1r,4S)-4-hydroxy-4-methylcyclohexyl)phenyl)-2-methylpropyl)-2-thia-6-azaspiro[3.4]octane 2,2-dioxide, and 6-((R)-3-(3-chloro-4-((1r,4R)-4-hydroxy-4-methylcyclohexyl)phenyl)-2-methylpropyl)-2-thia-6-azaspiro[3.4]octane 2,2-dioxide]

EC50 ([1]; Mus musculus, 24 h): 0.0013 µM
EC50 (EpiSC-derived OPCs; Mus musculus, 72 h): 0.02 µM
Ki [2]: 0.00857 µM
Compound: CC(Cc1ccc(C2(C)CC2)cc1)CN1CCC2(C1)CS(=O)(=O)C2 (racemic) [Compound 111A, 6-(2-Methyl-3-(4-(1-methylcyclopropyl)phenyl)propyl)-2-thia-6-azaspiro[3.4]octane 2,2-dioxide]

EC50 ([1]; Mus musculus, 24 h): 0.0244 µM
EC50 (EpiSC-derived OPCs; Mus musculus, 72 h): 0.0948 µM
Ki [2]: 0.0149 µM
Compound: O=S1(=O)CC2(CCN(CCOc3cnc([C@H]4CCC[C@H](C(F)(F)F)C4)nc3)CC2)C1 (relative stereo) [Compound 248A, 7-(2-((2-((trans)-3-(Trifluoromethyl)cyclohexyl)pyrimidin-5-yl)oxy)ethyl)-2-thia-7-azaspiro[3.5]nonane 2,2-dioxide]

EC50 ([1]; Mus musculus, 24 h): 0.0256 µM
EC50 (EpiSC-derived OPCs; Mus musculus, 72 h): 0.0741 µM
Ki [2]: 0.0316 µM
Compound: O=S1(=O)CC2(CCN(CCOc3cnc([C@H]4CCC[C@@H](C(F)(F)F)C4)nc3)CC2)C1 (relative stereo) [Compound 248B, 7-(2-((2-((cis)-3-(trifluoromethyl)cyclohexyl)pyrimidin-5-yl)oxy)ethyl)-2-thia-7-azaspiro[3.5]nonane 2,2-dioxide]
